From US20050203100A1, “Use of an alfa2-adrenoreceptor antagonist for cns-related diseases” (priority 2002, published 2005)
“Also recorded” adds a separate entry of the source.

Columns and labels:
[1] = system: startle reflex and its prepulse inhibition in rats; assay: Acoustic startle reactivity and prepulse inhibition (PPI) in rats; assay type: in vivo; conditions: compound given 20 min before measurement, vs vehicle, FIG. 1
Protocol: (§1) In order to study the effect of alpha2-antagonists on startle reflex and its prepulse-inhibition, groups of rats (n=10/group) were pre-treated with the alpha2C-antagonist or vehicle 20 min before measurement of the acoustic startle reactivity and PPI in a test system designed for startle studies (SR-LAB, San Diego Instruments, CA, USA). In a subsequent experiment the effects of the alpha2-adrenoceptor subtype selective alpha2C-antagonist and or the subtype non-selective antagonist atipamezole (Haapalinna, A. et al., Naunyn-Schmiedeberg's Arch. Pharmacol. 356 (1997) 570-582) on PCP-induced PPI-disruption was studied. The antagonists were given 20 min, and PCP or vehicle 10 min before start of the startle measurements. The method otherwise corresponds to the procedure described in Sallinen, J. et al., J. Neurosci. 18 (1998) 3035-42.

[2] = system: startle reflex and its prepulse inhibition in rats pretreated with the psychostimulant phencyclidine (PCP); assay: PCP-induced PPI disruption, startle reflex and prepulse inhibition in rats pretreated with phencyclidine; assay type: in vivo; conditions: FIG. 2; for effect on PCP-disrupted prepulse inhibition (PPI): antagonist 20 min and PCP 10 min before measurement, vs vehicle+PCP
Protocol: as §1

Row | SMILES | effect on prepulse inhibition (PPI, sensorimotor gating) [1] | effect on startle reflex (startle reactivity to intense pulses without prepulses) [1] | effect on PCP-disrupted prepulse inhibition (PPI) [2] | effect of PCP on prepulse inhibition (PPI) ([2]; PCP given 10 min before measurement) | effect on startle reactivity per se ([2]; PCP experiment)
1 | CN1CCN(c2ccc(Nc3c4ccccc4nc4ccccc34)cc2)CC1 [JP-1302, acridin-9-yl-[4-(4-methylpiperazin-1-yl)-phenyl]amine] | enhanced sensorimotor gating (prepulse inhibition %); also recorded: increased PPI dose-dependently and effectively | without significantly affecting the startle reactivity; also recorded: did not affect the startle reflex per se | effectively counteracted; also recorded: especially clearly seen in the presence of PCP |  | 
2 | c1ccc(C2(N3CCCCC3)CCCCC2)cc1 [PCP, phencyclidine] |  |  |  | clearly disrupted the PPI | 
3 | CCC1(c2cnc[nH]2)Cc2ccccc2C1 [atipamezole] |  |  | had no effect on the PPI phenomenon |  | increased significantly the startle reactivity per se
